Reference: ChEMBL document CHEMBL1140490, “Design and synthesis via click chemistry of 8,9-anhydroerythromycin A 6,9-hemiketal analogues with anti-MRSA and -VRE activity” (2007)
In brackets after ≈: the same amount, converted by molar mass.

Key:
Staphylococcus aureus [1] = experiment: (§1) Antimicrobial activity against Staphylococcus aureus 8325 by serial dilution method; assay type: functional
Staphylococcus aureus [2] = experiment: as §1; assay type: functional; remark: listed apart in the source
Escherichia coli = experiment: Antimicrobial activity against Escherichia coli NIHJ JC-2 by serial dilution method; assay type: functional
Enterococcus faecium = experiment: Antimicrobial activity against vancomycin-resistant Enterococcus faecium NCTC-12203 by serial dilution method
Staphylococcus aureus [3] = experiment: Antimicrobial activity against Staphylococcus aureus ISP217 by serial dilution method; assay type: functional
Staphylococcus aureus [4] = experiment: Antimicrobial activity against Staphylococcus aureus ISP447 by serial dilution method; assay type: functional
Staphylococcus aureus [5] = experiment: Antimicrobial activity against methicillin-resistant Staphylococcus aureus 70 by serial dilution method; assay type: functional
Enterococcus faecalis = experiment: Antimicrobial activity against vancomycin-resistant Enterococcus faecalis NCTC-12201 by serial dilution method; assay type: functional
Staphylococcus aureus [6] = experiment: Antimicrobial activity against Staphylococcus aureus FDA209P by serial dilution method; assay type: functional
Staphylococcus aureus [7] = experiment: Antimicrobial activity against methicillin-resistant Staphylococcus aureus 92-1191 by serial dilution method; assay type: functional
Staphylococcus aureus [8] = experiment: Antimicrobial activity against Staphylococcus aureus Smith by serial dilution method; assay type: functional
Staphylococcus aureus [9] = experiment: Antimicrobial activity against methicillin-resistant Staphylococcus aureus N315 IR94-HR-1 by serial dilution method; assay type: functional
Staphylococcus aureus [10] = experiment: Antimicrobial activity against methicillin-resistant Staphylococcus aureus N315 IR94 by serial dilution method; assay type: functional

| Compound | MIC (Staphylococcus aureus [1]) [µg/mL] | MIC (Staphylococcus aureus [2]) [µg/mL] | MIC (Escherichia coli) [µg/mL] | MIC (Enterococcus faecium) [µg/mL] | MIC (Staphylococcus aureus [3]) [µg/mL] | MIC (Staphylococcus aureus [4]) [µg/mL] | MIC (Staphylococcus aureus [5]) [µg/mL] | MIC (Enterococcus faecalis) [µg/mL] | MIC (Staphylococcus aureus [6]) [µg/mL] | MIC (Staphylococcus aureus [7]) [µg/mL] | MIC (Staphylococcus aureus [8]) [µg/mL] | MIC (Staphylococcus aureus [9]) [µg/mL] | MIC (Staphylococcus aureus [10]) [µg/mL] |
| --- | --- | --- | --- | --- | --- | --- | --- | --- | --- | --- | --- | --- | --- |
| CC[C@H]1OC(=O)[C@H](C)[C@@H](OCc2cn(-c3cccnc3)nn2)[C@H](C)[C@@H](O[C@@H]2O[C@H](C)C[C@H](N(C)C)[C@H]2O)[C@@]2(C)CC(C)=C(O2)[C@H](C)[C@@H](OC(=O)C(C)C)[C@]1(C)OC(=O)C(C)C | 128 (≈ 150 µM) | 16 (≈ 18.7 µM) | > 128 | 16 (≈ 18.7 µM) | 16 (≈ 18.7 µM) | 64 (≈ 74.8 µM) | 16 (≈ 18.7 µM) | 32 (≈ 37.4 µM) | 32 (≈ 37.4 µM) | 32 (≈ 37.4 µM) | 64 (≈ 74.8 µM) | 16 (≈ 18.7 µM) | 16 (≈ 18.7 µM) |
| CC[C@H]1OC(=O)[C@H](C)[C@@H](OCc2cn(CC(=O)Nc3ccccn3)nn2)[C@H](C)[C@@H](O[C@@H]2O[C@H](C)C[C@H](N(C)C)[C@H]2O)[C@@]2(C)CC(C)=C(O2)[C@H](C)[C@@H](OC(=O)C(C)C)[C@]1(C)OC(=O)C(C)C | 32 (≈ 35 µM) | 16 (≈ 17.5 µM) | > 128 | 32 (≈ 35 µM) | 16 (≈ 17.5 µM) | 32 (≈ 35 µM) | 32 (≈ 35 µM) | > 128 | 32 (≈ 35 µM) | 32 (≈ 35 µM) | 32 (≈ 35 µM) | 16 (≈ 17.5 µM) | 16 (≈ 17.5 µM) |
| CC[C@H]1OC(=O)[C@H](C)[C@@H](OCc2cn(C34CC5CC(CC(C5)C3)C4)nn2)[C@H](C)[C@@H](O[C@@H]2O[C@H](C)C[C@H](N(C)C)[C@H]2O)[C@@]2(C)CC(C)=C(O2)[C@H](C)[C@@H](OC(=O)C(C)C)[C@]1(C)OC(=O)C(C)C | 16 (≈ 17.5 µM) | 8 (≈ 8.76 µM) | > 128 | 8 (≈ 8.76 µM) | 8 (≈ 8.76 µM) | 16 (≈ 17.5 µM) | 8 (≈ 8.76 µM) | 8 (≈ 8.76 µM) | 8 (≈ 8.76 µM) | 8 (≈ 8.76 µM) | 16 (≈ 17.5 µM) | 8 (≈ 8.76 µM) | 8 (≈ 8.76 µM) |
| CC[C@H]1OC(=O)[C@H](C)[C@@H](OCc2cn(CSc3ccccc3)nn2)[C@H](C)[C@@H](O[C@@H]2O[C@H](C)C[C@H](N(C)C)[C@H]2O)[C@@]2(C)CC(C)=C(O2)[C@H](C)[C@@H](OC(=O)C(C)C)[C@]1(C)OC(=O)C(C)C | 16 (≈ 17.8 µM) | 16 (≈ 17.8 µM) | > 128 | 16 (≈ 17.8 µM) | 16 (≈ 17.8 µM) | 16 (≈ 17.8 µM) | 16 (≈ 17.8 µM) | 16 (≈ 17.8 µM) | 16 (≈ 17.8 µM) | 16 (≈ 17.8 µM) | 32 (≈ 35.5 µM) | 8 (≈ 8.88 µM) | 8 (≈ 8.88 µM) |
| CC[C@H]1OC(=O)[C@H](C)[C@@H](OCc2cn(CC(=O)OCc3ccccc3)nn2)[C@H](C)[C@@H](O[C@@H]2O[C@H](C)C[C@H](N(C)C)[C@H]2O)[C@@]2(C)CC(C)=C(O2)[C@H](C)[C@@H](OC(=O)C(C)C)[C@]1(C)OC(=O)C(C)C | 64 (≈ 69 µM) | 16 (≈ 17.3 µM) | > 128 | 32 (≈ 34.5 µM) | 16 (≈ 17.3 µM) | 64 (≈ 69 µM) | 16 (≈ 17.3 µM) | 32 (≈ 34.5 µM) | 32 (≈ 34.5 µM) | 32 (≈ 34.5 µM) | 128 (≈ 138 µM) | 16 (≈ 17.3 µM) | 16 (≈ 17.3 µM) |
| C#CCO[C@H]1[C@H](C)[C@@H](O[C@@H]2O[C@H](C)C[C@H](N(C)C)[C@H]2O)[C@@]2(C)CC(C)=C(O2)[C@H](C)[C@@H](OC(=O)C(C)C)[C@](C)(OC(=O)C(C)C)[C@@H](CC)OC(=O)[C@@H]1C | 32 (≈ 43.5 µM) | 16 (≈ 21.7 µM) | > 128 | 16 (≈ 21.7 µM) | 16 (≈ 21.7 µM) | 32 (≈ 43.5 µM) | 16 (≈ 21.7 µM) | 16 (≈ 21.7 µM) | 32 (≈ 43.5 µM) | 16 (≈ 21.7 µM) | 32 (≈ 43.5 µM) | 16 (≈ 21.7 µM) | 16 (≈ 21.7 µM) |
| CC[C@H]1OC(=O)[C@H](C)[C@@H](O[C@H]2C[C@@](C)(OC)[C@@H](O)[C@H](C)O2)[C@H](C)[C@@H](O[C@@H]2O[C@H](C)C[C@H](N(C)C)[C@H]2O)[C@@]2(C)CC(C)=C(O2)[C@H](C)[C@@H](OC(=O)C(C)C)[C@]1(C)OC(=O)C(C)C | 32 (≈ 37.4 µM) | 16 (≈ 18.7 µM) | > 128 | 32 (≈ 37.4 µM) | 16 (≈ 18.7 µM) | 32 (≈ 37.4 µM) | 32 (≈ 37.4 µM) | 64 (≈ 74.8 µM) | 16 (≈ 18.7 µM) | 32 (≈ 37.4 µM) | 16 (≈ 18.7 µM) | 16 (≈ 18.7 µM) | 16 (≈ 18.7 µM) |
| CC[C@H]1OC(=O)[C@H](C)[C@@H](O[C@H]2C[C@@](C)(OC)[C@@H](OC=O)[C@H](C)O2)[C@H](C)[C@@H](O[C@@H]2O[C@H](C)C[C@H](N(C)C)[C@H]2OC(C)=O)[C@@]2(C)CC(C)=C(O2)[C@H](C)[C@@H](OC(=O)C(C)C)[C@]1(C)OC(=O)C(C)C | 32 (≈ 34.6 µM) | 16 (≈ 17.3 µM) | > 128 | 32 (≈ 34.6 µM) | 16 (≈ 17.3 µM) | 16 (≈ 17.3 µM) | 16 (≈ 17.3 µM) | 32 (≈ 34.6 µM) | 16 (≈ 17.3 µM) |  | 16 (≈ 17.3 µM) | 16 (≈ 17.3 µM) | 16 (≈ 17.3 µM) |
| CC[C@H]1OC(=O)[C@H](C)[C@@H](OCc2cn(-c3cccc4ccccc34)nn2)[C@H](C)[C@@H](O[C@@H]2O[C@H](C)C[C@H](N(C)C)[C@H]2O)[C@@]2(C)CC(C)=C(O2)[C@H](C)[C@@H](OC(=O)C(C)C)[C@]1(C)OC(=O)C(C)C | 64 (≈ 70.7 µM) | 16 (≈ 17.7 µM) | > 128 | 16 (≈ 17.7 µM) | 16 (≈ 17.7 µM) | 32 (≈ 35.4 µM) | 16 (≈ 17.7 µM) | 32 (≈ 35.4 µM) | 32 (≈ 35.4 µM) | 32 (≈ 35.4 µM) | 64 (≈ 70.7 µM) | 16 (≈ 17.7 µM) | 16 (≈ 17.7 µM) |
| CC[C@H]1OC(=O)[C@H](C)[C@@H](OCc2cn(CCO)nn2)[C@H](C)[C@@H](O[C@@H]2O[C@H](C)C[C@H](N(C)C)[C@H]2O)[C@@]2(C)CC(C)=C(O2)[C@H](C)[C@@H](OC(=O)C(C)C)[C@]1(C)OC(=O)C(C)C | 128 (≈ 156 µM) | 64 (≈ 77.8 µM) | > 128 | 64 (≈ 77.8 µM) | 128 (≈ 156 µM) | > 128 | 64 (≈ 77.8 µM) | 128 (≈ 156 µM) | 64 (≈ 77.8 µM) | 128 (≈ 156 µM) | > 128 | 64 (≈ 77.8 µM) | 64 (≈ 77.8 µM) |
| CC[C@H]1OC(=O)[C@H](C)[C@@H](O)[C@H](C)[C@@H](O[C@@H]2O[C@H](C)C[C@H](N(C)C)[C@H]2OC(C)=O)[C@@]2(C)CC(C)=C(O2)[C@H](C)[C@@H](OC(=O)C(C)C)[C@]1(C)OC(=O)C(C)C | 128 (≈ 173 µM) | 64 (≈ 86.5 µM) | > 128 | 64 (≈ 86.5 µM) | 64 (≈ 86.5 µM) | 128 (≈ 173 µM) | 64 (≈ 86.5 µM) | 64 (≈ 86.5 µM) | 64 (≈ 86.5 µM) | 64 (≈ 86.5 µM) | > 128 | 64 (≈ 86.5 µM) | 64 (≈ 86.5 µM) |
| CC[C@H]1OC(=O)[C@H](C)[C@@H](OCc2cn(CC(=O)O)nn2)[C@H](C)[C@@H](O[C@@H]2O[C@H](C)C[C@H](N(C)C)[C@H]2O)[C@@]2(C)CC(C)=C(O2)[C@H](C)[C@@H](OC(=O)C(C)C)[C@]1(C)OC(=O)C(C)C | > 128 | > 128 | > 128 | > 128 | > 128 | > 128 |  | > 128 | > 128 |  | > 128 |  |  |
| CC[C@H]1OC(=O)[C@H](C)[C@@H](OCc2cn(-c3cnc4ccccc4c3)nn2)[C@H](C)[C@@H](O[C@@H]2O[C@H](C)C[C@H](N(C)C)[C@H]2O)[C@@]2(C)CC(C)=C(O2)[C@H](C)[C@@H](OC(=O)C(C)C)[C@]1(C)OC(=O)C(C)C | 32 (≈ 35.3 µM) | 8 (≈ 8.83 µM) | > 128 | 16 (≈ 17.7 µM) | 16 (≈ 17.7 µM) | 32 (≈ 35.3 µM) | 16 (≈ 17.7 µM) | 32 (≈ 35.3 µM) | 16 (≈ 17.7 µM) | 16 (≈ 17.7 µM) | 32 (≈ 35.3 µM) | 16 (≈ 17.7 µM) | 8 (≈ 8.83 µM) |
| CC[C@H]1OC(=O)[C@H](C)[C@@H](OCc2cn(Cc3ccccc3)nn2)[C@H](C)[C@@H](O[C@@H]2O[C@H](C)C[C@H](N(C)C)[C@H]2O)[C@@]2(C)CC(C)=C(O2)[C@H](C)[C@@H](OC(=O)C(C)C)[C@]1(C)OC(=O)C(C)C | 16 (≈ 18.4 µM) | 8 (≈ 9.2 µM) | > 128 | 16 (≈ 18.4 µM) | 16 (≈ 18.4 µM) | 16 (≈ 18.4 µM) | 16 (≈ 18.4 µM) | 16 (≈ 18.4 µM) | 16 (≈ 18.4 µM) | 16 (≈ 18.4 µM) | 32 (≈ 36.8 µM) | 8 (≈ 9.2 µM) | 8 (≈ 9.2 µM) |
| CC[C@H]1OC(=O)[C@H](C)[C@@H](O[C@H]2C[C@@](C)(OC)[C@@H](O)[C@H](C)O2)[C@H](C)[C@@H](O[C@@H]2O[C@H](C)C[C@H](N(C)C)[C@H]2O)[C@](C)(O)C[C@@H](C)C(=O)[C@H](C)[C@@H](O)[C@]1(C)O [ERYTHROMYCIN] | 64 (≈ 87.2 µM) | > 256 | > 256 | > 256 | > 256 | > 256 |  | > 256 | ≤ 0.5 | > 128 | ≤ 0.5 |  |  |
